Data set [1] relates to α5-GABAA receptor. The note with it: GABA 1 μM, highest concentration of L-655,708; cited from earlier work.
In data set [2] the target is human α5β3γ2 receptors (α5-GABAA receptor) (Homo sapiens (Human), UniProt P18507+P31644). Description: 3H-flunitrazepam competition binding, human α5β3γ2 GABAA receptor. The note with it: HEK293 cell membranes, 1 nM 3H-flunitrazepam; read-out: α5-GABAAR Ki. An outline of the steps: (§1)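 HEK293 membranes stably expressing each human receptor subtype ([…]) competed against 1 nM 3H-flunitrazepam in Tris buffer, 1 h at room temperature; flumazenil defined the low-signal control. Eight-point 4-fold test-compound dilutions; GF/C filtration and scintillation counting gave IC50 by curve fitting, converted to Ki.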

Data set [3] deals with human α1β3γ2 receptors (Homo sapiens (Human), UniProt P14867+P18507). Kind of data set: 3H-flunitrazepam competition binding, human α1β3γ2 GABAA receptor. Conditions: HEK293 cell membranes, 1 nM 3H-flunitrazepam; read-out: Ki α1. An outline of the steps:
as §1

For data set [4], the target named is human α2β3γ2 receptors (Homo sapiens (Human), UniProt P18507+P47869). Kind of data set: 3H-flunitrazepam competition binding, human α2β3γ2 GABAA receptor. The note with it: HEK293 cell membranes, 1 nM 3H-flunitrazepam; read-out: Ki α2. The essentials: as §1
In data set [5] the target is human α3β3γ2 receptors (Homo sapiens (Human), UniProt P18507+P34903). Description: 3H-flunitrazepam competition binding, human α3β3γ2 GABAA receptor. Conditions: HEK293 cell membranes, 1 nM 3H-flunitrazepam; read-out: Ki α3. An outline of the steps:
as §1

The target in data set [6] is α5-GABAA receptor (α5, β3, γ2 subunits) (Homo sapiens (Human), UniProt P18507+P31644). Kind of data set: Whole cell patch clamp, inverse agonist efficacy in HEK293 cells expressing α5-GABAA receptor. The class given is cell-based. Conditions: HEK293, drug 100 nM, GABA 0.05 μM, −60 mV; read-out: Compound inverse agonist efficacy %. The essentials: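 Stable HEK293 line co-expressing human α5, β3, γ2 subunits; whole-cell patch clamp at −60 mV, inward current evoked by 0.05 μM GABA, then compound at 100 nM in GABA solution applied. Effect derived from leak, pre- and post-drug GABA currents.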
For orientation: The patch-clamp technique gives a direct electrical read-out from membranes.

The nature of data set [7]: Rat pharmacokinetic experiment. The class given is in vivo. The note with it: 3 mg/kg; for Cmax: plasma. On the procedure:
The maximum plasma concentration (Cmax) in the rat pharmacokinetic experiment was used to evaluate the absorption of the compounds in rat in vivo. The experimental compound was dissolved and then orally administered by gavage (p.o.) to male SD rats. The rats were fasted overnight before drug administration, and blood was collected via venipuncture at 0.25, 0.5, 1, 2, 4, and 7 hours post dose. Approximately 100 μL blood was collected for each sample; at the same time, the whole brain was taken and homogenized with 3 times the amount of PBS for analysis. The […] method was used to determine drug concentrations in plasma and brain tissue, and the proportion of compounds entering the brain (B/P) was calculated based on the AUC of the compound. Pharmacokinetic parameters were calculated using Phoenix WinNonlin 7.0. The administration vehicle was 5% CMC-Na aqueous solution.

Results on 3 compounds are retold here after patent US20250136581A1, “SUBSTITUTED TRIAZOLE DERIVATIVE, PREPARATION METHOD THEREFOR, PHARMACEUTICAL COMPOSITION THEREOF, AND USE THEREOF” (SHANGHAI SIMR BIOTECHNOLOGY CO., LTD., priority 2021, published 2025).

The structures appear in SMILES notation.

On to `CCOC(=O)c1ncn2c1[C@@H]1CCCN1C(=O)c1cc(OC)ccc1-2` [L-655,708], for which the “suppression of the current induced by GABA” value in data set [1] is given as 15%.

For orientation: Ki means a measure of affinity in units of concentration, obtained from inhibition or displacement. Usually Cmax stands for the maximum level reached in the sampled fluid or tissue. In the case of `Cc1nnn(-c2ccc(C(F)F)cc2)c1COc1cnc(N2CCNC(=O)C2)cn1` [Example 169, 4-(5-((1-(4-(Difluoromethyl)phenyl)-4-methyl-1H-1,2,3-triazol-5-yl)methoxy)pyrazin-2-yl)piperazin-2-one], the inhibition constant (Ki) in data set [2] was 1.11 nM; in data set [3], 73.5 nM; in data set [4], 27.2 nM; in data set [5], 26.3 nM. In data set [6], the inhibition at 0.1 µM amounted to 40.5%. Also, the “B/P (proportion of compounds entering the brain)” value in data set [7] (male SD rats, p.o., based on AUC) stood at 3.81%. The same compound gave a Cmax in data set [7] (rat, po, male SD rats) of 3180 ng/mL.

With `Cc1nnn(-c2ccc(C(F)F)cc2)c1COc1ccc(N2CC(C(=O)NC(C)C)C2)nn1` [Example 155, 1-(6-((1-(4-(Difluoromethyl)phenyl)-4-methyl-1H-1,2,3-triazol-5-yl)methoxy)pyridazin-3-yl)-N-isopropylazetidine-3-carboxamide], the inhibition constant (Ki) amounted to 5.39 nM in data set [2], 389 nM in data set [3], 231 nM in data set [4] and 68.7 nM in data set [5]. Also, the inhibition at 0.1 µM in data set [6] amounted to 42.3%. For the same compound, the Kp in data set [7] (male, SD, rat, brain / plasma, po, read-out: B/P (proportion of compounds entering the brain)) came out at 0.0166. In data set [7] (rat, po, male SD rats), the peak level (Cmax) was 3020 ng/mL.
